Common to all, as to format: cell-based
Experiment [1] concerns the target T1, human TLR8 (Homo sapiens, UniProt Q9NR97).
T1 construct: host or cells: HEK-Blue cells
T1 sequence (Q9NR97 27-1041): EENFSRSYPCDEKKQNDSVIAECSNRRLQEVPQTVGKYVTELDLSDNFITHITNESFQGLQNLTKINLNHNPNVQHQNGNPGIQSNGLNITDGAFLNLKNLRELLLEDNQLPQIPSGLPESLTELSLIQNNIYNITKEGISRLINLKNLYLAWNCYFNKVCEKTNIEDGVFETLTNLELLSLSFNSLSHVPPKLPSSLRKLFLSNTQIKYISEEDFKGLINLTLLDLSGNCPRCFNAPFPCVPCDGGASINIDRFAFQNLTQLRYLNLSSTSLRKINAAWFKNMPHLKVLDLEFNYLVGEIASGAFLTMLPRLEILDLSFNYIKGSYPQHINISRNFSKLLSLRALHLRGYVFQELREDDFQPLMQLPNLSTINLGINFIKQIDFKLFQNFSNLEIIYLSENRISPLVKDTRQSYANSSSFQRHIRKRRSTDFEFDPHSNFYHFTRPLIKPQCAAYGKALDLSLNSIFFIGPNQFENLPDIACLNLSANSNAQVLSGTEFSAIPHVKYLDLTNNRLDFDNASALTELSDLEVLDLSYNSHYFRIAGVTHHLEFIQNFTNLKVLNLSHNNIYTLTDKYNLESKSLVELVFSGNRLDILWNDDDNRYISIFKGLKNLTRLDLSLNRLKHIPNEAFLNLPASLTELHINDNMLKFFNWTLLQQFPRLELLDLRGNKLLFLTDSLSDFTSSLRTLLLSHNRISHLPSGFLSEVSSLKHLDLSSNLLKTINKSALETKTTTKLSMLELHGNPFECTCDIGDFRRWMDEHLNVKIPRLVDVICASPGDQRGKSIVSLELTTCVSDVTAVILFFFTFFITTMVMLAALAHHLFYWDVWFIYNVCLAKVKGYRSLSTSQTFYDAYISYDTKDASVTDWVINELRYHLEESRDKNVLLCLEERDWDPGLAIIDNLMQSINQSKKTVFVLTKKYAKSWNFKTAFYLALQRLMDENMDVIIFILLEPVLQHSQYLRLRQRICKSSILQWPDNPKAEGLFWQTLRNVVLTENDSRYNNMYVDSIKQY
Put plainly: TLR8 inhibition reporter assay (HEK-Blue, SEAP). The note with it: HEK-Blue cells overexpressing human TLR8, R848 15.9 μM, 22 hour incubation. The method in brief:
(§1)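 Agonists used: gardiquimod 7.5 μM (TLR7), R848 15.9 μM (TLR8), ODN2006 5 nM (TLR9), added after 30 min room-temperature compound pre-treatment (0.05 nM–50 μM) of receptor-overexpressing HEK-Blue cells. SEAP reporter (NF-κB/AP-1 driven) read after 22 h at 37 °C; inhibition scaled between agonist+DMSO and reference-inhibitor wells.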

Experiment [2] deals with T2, human TLR7 (Homo sapiens, UniProt Q9NYK1).
T2 construct: host or cells: HEK-Blue cells
T2 sequence (Q9NYK1 27-1049): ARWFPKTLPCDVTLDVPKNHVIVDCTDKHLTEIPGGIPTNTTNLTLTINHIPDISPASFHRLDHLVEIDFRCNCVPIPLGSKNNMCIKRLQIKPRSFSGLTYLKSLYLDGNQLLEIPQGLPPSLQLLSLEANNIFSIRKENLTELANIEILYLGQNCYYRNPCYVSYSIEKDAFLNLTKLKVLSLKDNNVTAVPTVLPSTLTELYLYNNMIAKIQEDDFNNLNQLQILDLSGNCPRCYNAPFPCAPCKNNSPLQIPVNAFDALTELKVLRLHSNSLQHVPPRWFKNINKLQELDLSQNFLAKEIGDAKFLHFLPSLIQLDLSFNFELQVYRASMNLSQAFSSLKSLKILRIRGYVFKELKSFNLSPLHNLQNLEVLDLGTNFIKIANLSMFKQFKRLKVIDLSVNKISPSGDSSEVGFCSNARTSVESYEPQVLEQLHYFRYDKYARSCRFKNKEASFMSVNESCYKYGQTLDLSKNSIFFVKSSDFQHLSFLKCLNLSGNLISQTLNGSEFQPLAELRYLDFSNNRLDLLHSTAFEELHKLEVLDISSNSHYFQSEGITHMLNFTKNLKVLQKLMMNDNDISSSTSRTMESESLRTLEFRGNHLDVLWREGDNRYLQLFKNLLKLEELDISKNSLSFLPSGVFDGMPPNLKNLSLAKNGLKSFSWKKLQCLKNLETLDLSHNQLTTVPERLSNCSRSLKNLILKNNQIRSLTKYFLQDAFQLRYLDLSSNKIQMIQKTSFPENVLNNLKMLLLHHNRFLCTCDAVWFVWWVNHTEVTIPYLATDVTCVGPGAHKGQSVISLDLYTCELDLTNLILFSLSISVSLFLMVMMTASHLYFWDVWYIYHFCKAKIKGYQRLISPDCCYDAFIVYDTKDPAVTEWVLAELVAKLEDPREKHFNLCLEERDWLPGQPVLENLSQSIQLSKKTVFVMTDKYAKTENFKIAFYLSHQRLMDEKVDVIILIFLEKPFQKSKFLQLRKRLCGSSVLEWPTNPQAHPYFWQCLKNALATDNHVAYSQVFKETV
As to the kind of experiment: TLR7 inhibition reporter assay (HEK-Blue, SEAP). The note with it: HEK-Blue cells overexpressing human TLR7, gardiquimod 7.5 μM, 22 hour incubation. A digest of the protocol:
as §1

Experiment [3] deals with T3, human TLR9 (Homo sapiens, UniProt Q9NR96).
T3 construct: host or cells: HEK-Blue cells
T3 sequence (Q9NR96 26-1032): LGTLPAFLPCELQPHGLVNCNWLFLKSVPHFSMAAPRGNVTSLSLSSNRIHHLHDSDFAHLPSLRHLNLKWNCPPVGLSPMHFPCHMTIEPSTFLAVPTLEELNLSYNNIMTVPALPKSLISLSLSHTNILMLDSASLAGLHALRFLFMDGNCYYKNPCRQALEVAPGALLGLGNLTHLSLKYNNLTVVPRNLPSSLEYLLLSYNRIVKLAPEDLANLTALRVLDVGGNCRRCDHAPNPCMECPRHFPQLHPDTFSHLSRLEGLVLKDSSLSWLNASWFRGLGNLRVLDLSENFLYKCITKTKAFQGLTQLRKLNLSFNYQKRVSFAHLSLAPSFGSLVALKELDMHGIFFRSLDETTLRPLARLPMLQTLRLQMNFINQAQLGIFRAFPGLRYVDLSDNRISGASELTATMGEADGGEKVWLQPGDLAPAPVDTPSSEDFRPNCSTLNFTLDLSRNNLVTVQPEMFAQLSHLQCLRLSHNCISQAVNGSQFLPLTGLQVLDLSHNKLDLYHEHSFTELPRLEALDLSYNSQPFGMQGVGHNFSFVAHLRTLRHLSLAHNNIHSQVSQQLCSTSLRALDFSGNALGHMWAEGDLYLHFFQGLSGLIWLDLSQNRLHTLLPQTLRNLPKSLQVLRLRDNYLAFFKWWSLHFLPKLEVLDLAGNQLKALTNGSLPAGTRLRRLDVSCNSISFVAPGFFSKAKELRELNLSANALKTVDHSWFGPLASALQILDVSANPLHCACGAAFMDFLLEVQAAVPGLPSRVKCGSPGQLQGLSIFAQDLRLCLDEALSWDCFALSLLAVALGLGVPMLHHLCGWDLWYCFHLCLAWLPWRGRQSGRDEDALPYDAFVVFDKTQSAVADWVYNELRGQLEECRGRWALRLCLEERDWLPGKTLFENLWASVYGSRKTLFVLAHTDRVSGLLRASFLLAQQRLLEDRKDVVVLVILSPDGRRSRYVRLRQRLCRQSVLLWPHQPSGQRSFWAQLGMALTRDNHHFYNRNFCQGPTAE
Put plainly: TLR9 inhibition reporter assay (HEK-Blue, SEAP). To be noted: HEK-Blue cells overexpressing human TLR9, ODN2006 5 nM, 22 hour incubation. A digest of the protocol:
as §1

Take `Cc1nnc2ccc(-c3[nH]c4ccc(C5CCN(C6COC6)CC5)cc4c3C(C)C)cn12` [Example 67, 6-(3-isopropyl-5-(1-(oxetan-3-yl)piperidin-4-yl)-1H-indol-2-yl)-3-methyl-[1,2,4]triazolo[4,3-a]pyridine]: the IC50 in experiment [1] was 16.6 nM; in experiment [2], 60.3 nM; in experiment [3], 10100 nM.

Consider `Cc1cc2nncn2cc1-c1[nH]c2ccc(C3CCN(C4CCOCC4)CC3)cc2c1C(C)C` [Example 68, 6-(3-isopropyl-5-(1-(tetrahydro-2H-pyran-4-yl)piperidin-4-yl)-1H-indol-2-yl)-7-methyl-[1,2,4]triazolo[4,3-a] pyridine], for which the IC50 in experiment [1] was found to be 139 nM; in experiment [2] it was 20.7 nM; in experiment [3], 1250 nM.

Take `Cc1cc(-c2[nH]c3ccc(C4CCN(C5CCOCC5)CC4)cc3c2C(C)C)cn2cnnc12` [Example 69, 6-(3-isopropyl-5-(1-(tetrahydro-2H-pyran-4-yl)piperidin-4-yl)-1H-indol-2-yl)-8-methyl-[1,2,4]triazolo[4,3-a]pyridine]: the half-inhibitory concentration (IC50) is 3 nM in experiment [1], 0.6 nM in experiment [2] and 1040 nM in experiment [3].

For `Cc1c(-c2[nH]c3ccc(C4CCN(C5CCOCC5)CC4)cc3c2C(C)C)ccc2nncn12` [Example 70, 6-(3-isopropyl-5-(1-(tetrahydro-2H-pyran-4-yl)piperidin-4-yl)-1H-indol-2-yl)-5-methyl-[1,2,4]triazolo[4,3-a]pyridine], the values for the IC50 in experiment [1], in experiment [2] and in experiment [3] were 10.8 nM, 83.5 nM and 1070 nM, respectively.

On to `Cc1cc(-c2[nH]c3ccc(C4CCN(Cc5ccn(C)n5)CC4)cc3c2C(C)C)cn2c(C)nnc12` [Example 71, 6-(3-isopropyl-5-(1-((1-methyl-1H-pyrazol-3-yl)methyl)piperidin-4-yl)-1H-indol-2-yl)-3,8-dimethyl-[1,2,4]triazolo[4,3-a]pyridine], for which the IC50 in experiment [1] is 1.8 nM; in experiment [2], 12.7 nM; in experiment [3], 1130 nM.

For the compound `Cc1cc(-c2[nH]c3ccc(C4CCN(C5COC5)CC4)cc3c2C(C)C)cn2c(C)nnc12` [Example 72, 6-(3-isopropyl-5-(1-(oxetan-3-yl)piperidin-4-yl)-1H-indol-2-yl)-3,8-dimethyl-[1,2,4]triazolo[4,3-a]pyridine], the IC50 worked out at 11.7 nM in experiment [1], 11.8 nM in experiment [2] and 7870 nM in experiment [3].

As for `Cc1cc(-c2[nH]c3ccc(C4CCN(C5CCOCC5)CC4)cc3c2C(C)C)cn2c(C)nnc12` [Example 73, 6-(3-isopropyl-5-(1-(tetrahydro-2H-pyran-4-yl)piperidin-4-yl)-1H-indol-2-yl)-3,8-dimethyl-[1,2,4]triazolo [4,3-a]pyridine], the values for the IC50 in experiment [1], in experiment [2] and in experiment [3] were 1.9 nM, 20.4 nM and 562 nM, respectively.

Regarding `Cc1cc(-c2[nH]c3ccc(C4CCN(Cc5ccn(C)n5)CC4)cc3c2C(C)C)cn2cnnc12` [Example 74, 6-(3-isopropyl-5-(1-((1-methyl-1H-pyrazol-3-yl)methyl)piperidin-4-yl)-1H-indol-2-yl)-8-methyl-[1,2,4]triazolo[4,3-a]pyridine], the IC50 stood at 1.7 nM in experiment [1], 1.2 nM in experiment [2] and 908 nM in experiment [3].

For `Cc1c(-c2[nH]c3ccc(C4CCN(C5COC5)CC4)cc3c2C(C)C)cn2cnnc2c1C` [Example 75, 6-(3-isopropyl-5-(1-(oxetan-3-yl)piperidin-4-yl)-1H-indol-2-yl)-7,8-dimethyl-[1,2,4]triazolo[4,3-a]pyridine], the IC50 in experiment [1] came out at 21.7 nM; in experiment [2] it was 3.3 nM; in experiment [3] it was 23800 nM.

Turning to `Cc1cc(-c2[nH]c3ccc(C4CCN(C5COC5)CC4)cc3c2C(C)C)c(C)n2cnnc12` [Example 76, 6-(3-isopropyl-5-(1-(oxetan-3-yl)piperidin-4-yl)-1H-indol-2-yl)-5,8-dimethyl-[1,2,4]triazolo[4,3-a]pyridine], the results for the IC50 in experiment [1], in experiment [2] and in experiment [3] were 13.1 nM, 106 nM and 16100 nM, respectively.

As for `Cc1cc(-c2[nH]c3ccc(C4CCN(C5CCOCC5)CC4)cc3c2C(C)C)c(C)n2cnnc12` [Example 77, 6-(3-isopropyl-5-(1-(tetrahydro-2H-pyran-4-yl)piperidin-4-yl)-1H-indol-2-yl)-5,8-dimethyl-[1,2,4]triazolo[4,3-a]pyridine], the 50% inhibitory concentration (IC50) was 3.6 nM in experiment [1], 55.9 nM in experiment [2] and 4190 nM in experiment [3].

In the case of `Cc1c(-c2[nH]c3ccc(C4CCN(C5CCOCC5)CC4)cc3c2C(C)C)cn2cnnc2c1C` [Example 78, 6-(3-isopropyl-5-(1-(tetrahydro-2H-pyran-4-yl)piperidin-4-yl)-1H-indol-2-yl)-7,8-dimethyl-[1,2,4]triazolo[4,3-a]pyridine], the IC50 in experiment [1] was 4.6 nM; in experiment [2], 1.3 nM; in experiment [3], 1780 nM.

These data come from patent US11130756B2, “[1,2,4]Triazolo[4,3-A]pyridinyl substituted indole compounds” (BRISTOL-MYERS SQUIBB COMPANY, priority 2017, dated 2021).
